Consider five compounds from paper PMC5920098, “Identification of the allosteric P2X7 receptor antagonist [^11C]SMW139 as a PET tracer of microglial activation” (Scientific Reports, 2018).

“Also recorded” adds a separate entry of the source.

The target of data set [1] is T1, human P2X7 receptor (hP2X7R) (Homo sapiens, UniProt Q99572).
T1 sequence (Q99572 1-595): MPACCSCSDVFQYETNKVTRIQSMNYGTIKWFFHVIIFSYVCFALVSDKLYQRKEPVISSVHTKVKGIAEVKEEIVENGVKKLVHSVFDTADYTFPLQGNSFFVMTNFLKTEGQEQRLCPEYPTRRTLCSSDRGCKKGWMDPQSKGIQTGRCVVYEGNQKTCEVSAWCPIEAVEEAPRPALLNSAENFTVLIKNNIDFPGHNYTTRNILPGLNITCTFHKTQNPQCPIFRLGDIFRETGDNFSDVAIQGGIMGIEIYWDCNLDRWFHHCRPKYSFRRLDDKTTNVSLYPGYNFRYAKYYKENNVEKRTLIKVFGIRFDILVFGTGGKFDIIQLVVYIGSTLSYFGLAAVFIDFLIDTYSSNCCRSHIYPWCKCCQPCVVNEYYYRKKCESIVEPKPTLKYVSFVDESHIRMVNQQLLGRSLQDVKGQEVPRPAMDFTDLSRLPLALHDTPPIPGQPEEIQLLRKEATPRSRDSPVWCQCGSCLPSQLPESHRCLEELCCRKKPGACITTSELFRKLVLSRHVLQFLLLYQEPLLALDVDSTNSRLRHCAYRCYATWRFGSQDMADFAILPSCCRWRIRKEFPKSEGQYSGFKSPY
The data set is described as follows: In vitro autoradiography on rat brain cryosections locally overexpressing hP2X7R. The settings on record: co-incubation with blocker 10 µM, tracer 28 nM, n = 2.
Description: Snap frozen brain tissue was cut on a cryostat into 20 μm sections.
Stereotactic injection of viral vector
Female Wistar rats (n=7) were anaesthetised by intraperitoneal (i.p.)
injection of ketamine (75 mg·kg-1); Ketalar, Pfizer, Brussels, Belgium) and medetomidin (1 mg·kg-1;
Domitor, Pfizer) and positioned in a stereotactic head frame (Stoelting, Wood Dale, IL, USA). Right and
left striatum were injected with 4 µL of the hP2X7R vector (rAAV_3flag-hP2X7R) and of the control
vector (rAAV_3flag-eGFP), respectively, at a rate of 0.25 µL·min-1, using a 30-gauge needle connected
to a 10 µL Hamilton syringe. Coordinates used for striatal injection of the hP2X7R vector were:
anteroposterior 0 cm, lateral -0.28 cm and dorsoventral -0.64 cm relative to bregma. Coordinates
used for striatal injection of the eGFP vector were: anteroposterior 0 cm, lateral +0.28 cm and
dorsoventral -0.64 cm relative to bregma. After injection, the needle was kept in place for another 5
minutes before removing it slowly. To reverse the anaesthesia, the rats were injected intraperitoneally
with 0.5 mg·kg-1 atipamezol (Antisedan, Orion Pharma, Newburry, Berkshire, UK).
Rats were sacrificed for in
vitro autoradiography at 3 (n=2) and 12 (n=5) weeks after vector injection.
Snap frozen brains of female Wistar rats (rAAV_3flag-hP2X7R in right striatum; rAAV_3flag-eGFP in left
striatum; sacrificed 3 weeks (n = 2) or 12 weeks (n = 5) after vector injection) were cut on a Leica
CM3050 S cryostat (Leica Biosystems, Nussloch, Germany) at -19 °C in transversal sections of 20 µm,
thaw-mounted on SuperFrostTM Plus (Thermo Fisher Scientific, Waltham, MA, USA) object glasses,
dried overnight on silica at 4 °C and then stored at -20 °C until use.
Upon use, sections were thawed to room temperature for an hour
before washing the sections in 5 mM Tris-HCl buffer (pH 7.4) at room temperature (3x 5 min). Sections
were dried in a cold stream of air before incubation (30 min) with 5 mM Tris-HCl buffer (pH 7.4)
concentration. After incubation, sections were washed (3x 1.5 min) in ice-cold 5 mM Tris-HCl buffer
(pH 7.4) followed by a dip in ice-cold demineralised water. Sections were dried in a stream of air and
then exposed to a storage phosphor screen (BAS-IP SR 2040 E, GE Healthcare Europe GmbH,
Eindhoven, the Netherlands) and the screen was read out on a Typhoon FLA 7000 phosphor imager
(GE Healthcare Europe GmbH, Eindhoven, the Netherlands).
quantified using ImageQuantTL Analysis Toolbox (version 8.1, GE Healthcare). In case of the rat brain
sections, regions of interest (ROIs) were defined around the striatum. […] Results are expressed as mean intensity, or as
percentage of tracer binding, relative to total tracer binding in the contralateral striatum. Experiments
with rAAV_3flag-hP2X7R injected rat brains were performed as a duplicate of quadruplicates.
Statistical analysis of quantitative autoradiography data (unpaired t test, two-tailed) was performed

Data set [2] is described as follows: Extended single microdose toxicity study in Wistar rats. The class given is in vivo. How it is done: A single microdose toxicity study for P2X7R antagonist SMW139 was performed according to EMEA guideline EMA/CPMP/ICH/286/1995 (December 2009) in healthy Wistar rats (male and female) at a dose of 0.12 mg·kg^−1. Rats were administered SMW139 or vehicle and parameters assessed post-dose were clinical signs and mortality, changes in body weight, food consumption, terminal haematology, coagulation and clinical chemistry parameters, gross pathology and organ weights. Further details are described in the Supplementary Information. […]
Extended single microdose toxicity study
A single microdose toxicity study according to EMEA guideline EMA/CPMP/ICH/286/1995 (December 2009) was performed in healthy Wistar rats at a 1000 times higher dose than the maximal dose […]
minimum specific activity of 18.5 GBq·µmol-1). Animals were allowed to acclimatise for 10 days, group-housed and in an enriched environment with food and water available ad libitum, and with a 12-hour light-dark cycle in a temperature controlled room. Post-dosing, animals were single-housed, but with the ability to communicate. SMW139 was formulated in 6.7% EtOH in acetate/citrate buffer (citric acid monohydrate (8 mg·mL-1), sodium citrate dehydrate (16 mg·mL-1) and sodium acetate trihydrate (7 mg ·mL-1); pH 5.2) with 2.5% Tween-80. Male and female Wistar rats (244-355 g; Charles River, Tranent, Edinburgh, United Kingdom) were injected intravenously via the tail vein under light isoflurane anaesthetics with formulated SMW139 (1 mL·kg-1, corresponding to a single dose of 0.12 mg·kg-1; female n = 10; male n = 10), or vehicle only (1 mL·kg-1; female n = 10; male n = 10) and animals were sacrificed 24 hours (SMW139; female n = 5; male n = 5; vehicle; female n = 5; male n = 5) or 14 days (SMW139; female n = 5; male n = 5; vehicle; female n = 5; male n = 5) post-dose by exsanguination

Data set [3] in a line: Ex vivo metabolite analysis (plasma and brain) in healthy male Wistar rats. Details: species or system rat. The procedure: In vivo stability of analogues [^11C]1–3 and [^11C]SMW139 was assessed in healthy male Wistar rats at 15 and 45 minutes after injection of 30–40 MBq of formulated tracer. […] Results obtained in plasma correspond with previously reported stability results in rat liver microsomes. A higher level of intact tracer was found in brain (Table 3) for [^11C]1 and [^11C]SMW139 compared with [^11C]2 and [^11C]3. Despite optimisation of the extraction method, the percentage of total radioactivity that could be extracted from brain homogenates was not optimal for all four compounds (59 ± 6% for [^11C]1; 58 ± 7% for [^11C]2; 61 ± 4% for [^11C]3; 62 ± 3% for [^11C]SMW139). Therefore, based on its highest stability in plasma in vivo, [^11C]SMW139 was selected for further in vivo studies. As imaging studies were performed in female rats, plasma metabolites were also determined in two female rats, and no differences were found between plasma metabolism of [^11C]SMW139 in male and female rats (Table S1; Supplementary Information).
For each of the carbon-11 labelled benzamide analogues [^11C]1–3 and [^11C]SMW139, a biodistribution study and metabolite analysis in healthy male Wistar rats was performed, as described in detail in the Supplementary Information. Briefly, tracer distribution in blood, brain, and peripheral organs was measured at 5, 15, 30 and 45 min after intravenous injection of 13–23 MBq of formulated tracer. Metabolite analysis was performed at 15 and 45 min after intravenous injection of 30–40 MBq of formulated tracer in both blood plasma and brain. […]
Ex vivo metabolite analysis
Healthy male and female Wistar rats (254-440 g) were injected with 30-40 MBq (at start of experiment) of formulated tracer in the tail vein under isoflurane anaesthesia. Rats were sacrificed at 15 and 45 min (n = 3 per time point). Blood samples were obtained and the brain was excised. Blood samples were collected in heparin tubes (BD Vacutainer NH 119 I.U., 7 mL, BD Vacutainer Systems, Plymouth, UK) and centrifuged at 4,000 rpm for 5 min at 4 °C (Hettich Universal 32, Andreas Hettich GmbH & Co.KG, Tuttlingen, Germany). Plasma supernatant was separated from blood cells and loaded onto a tC18 Sep-Pak (Waters, Milford, MA, USA), followed by washing with 3 mL of water to obtain the polar fraction. The non-polar fraction was then eluted with 2 mL of MeOH and 1 mL of water and further analysed by HPLC. The brain was put in a falcon tube containing 4 mL MeCN/H2O (50:50 v/v) and homogenised with a disperser (IKA T18 B Ultra-Turrax, IKA®-Werke GmbH & Co.KG, Staufen, Germany) before centrifugation (5 min, 4,000 rpm, 20 °C, Hettich Universal 32). Supernatant was separated from brain precipitate and analysed by HPLC. Analytical HPLC was performed with Dionex (Sunnyvale, CA, USA) UltiMate 3000 HPLC equipment with Chromeleon software (version 6.8) on a Gemini C18 5-µm (10 x 250 mm) column (Phenomenex, Torrance, CA, USA) with gradient and a mixture of MeCN (A) and 0.1% DIPA in water (B) as eluent according to the following scheme: 0 min, […]
0.25 mL·min-1. All separate fractions were counted for radioactivity in a Wizard Gammacounter 1470 or 2480 (Wallac/PerkinElmer, Waltham, MA, USA).

Data set [4] can be described thus: LogDoct,7.4 by shake-flask method (1-octanol / 0.2 M phosphate buffer pH 7.4). The class given is physicochemical. The settings on record: mean ± SD, read-out: LogDoct,7.4 (n = 3). How it is done: The LogDoct,7.4 of analogues [^11C]1–3 and [^11C]SMW139 ([^11C]4) was determined using the shake-flask method (partitioning between 1-octanol and 0.2 M phosphate buffer (pH 7.4)). Determined LogDoct,7.4 values (Table 1) show the same trend as LogD values reported by Wilkinson et al.[10].
LogDoct,7.4 of [^11C]1–3 and [^11C]SMW139 was determined by the shake-flask method as described in the Supplementary Information.
Analytical HPLC chromatogram of [11C]SMW139 formulation (Platinum C18, MeCN/H2O/TFA 45:55:0.1, 1 […]
Determination of LogDoct,7.4
The distribution of radiolabelled compound between 1-octanol and 0.2 M phosphate buffer (pH = 7.4) was measured at room temperature. Briefly, 1 mL of a 20 MBq·mL-1 solution of radiolabelled compound in 0.2 M phosphate buffer (pH = 7.4) was mixed with 1 mL of 1-octanol for 1 min using a vortex mixer. After a settling period of 30 min, three samples of 100 μL were taken from both layers.
All samples were counted for radioactivity in a Wallac Universal Gammacounter 1282 (PerkinElmer, Waltham, MA, USA). The LogDoct,7.4 value was calculated according to LogDoct,7.4 = 10Log(Aoct/Abuffer), where Aoct and Abuffer represent average radioactivity counts of the three 1-octanol and the three […]
(1 picture or pasted object on this page, not shown here)

[5] abbreviates: rat plasma, 15 min p.i., male Wistar rats.
[6] abbreviates: rat plasma, 45 min p.i., male Wistar rats.

Regarding `COc1ccc(CC(=O)NC(NC(=NC#N)Nc2cccc3ncccc23)C(C)(C)C)cc1OC` (stereo not shown) [A-740003, N-(1-{[(Cyanoimino)(5-quinolinylamino)methyl]amino}-2,2-dimethylpropyl)-2-(3,4-dimethoxyphenyl)acetamide, reference compound], the “Block of [^11C]SMW139 binding in rAAV_3flag-hP2X7R striatum” value in data set [1] is given as 79 ± 10%.

Consider `COc1ccc(Cl)c(C(=O)NCC23CC4(F)CC(F)(CC(F)(C4)C2)C3)c1` [SMW139], for which, in data set [2] (single i.v. dose 0.12 mg·kg^−1), the Food consumption result is given as “stable in all groups”; the “Haematology, coagulation and clinical chemistry parameters” value is given as “No treatment-related changes”; the Necropsy findings entry is given as “no abnormalities suggesting a toxic effect”; the Organ weights result is “No significant differences in organ weights”. The “Toxic / clinical effects” value in data set [2] (single i.v. dose 0.12 mg·kg^−1, male and female rats) is on record as “no abnormalities, complications or toxic clinical effects were observed; also recorded: no adverse or toxic effects; also recorded: no toxic effects”. In addition, in data set [2] (single i.v. dose 0.12 mg·kg^−1, p ≥ 0.05), the “Body weight curves vs vehicle” value was “did not differ between vehicle injected animals and animals injected with SMW139”.

`[11CH3]Oc1ccc(Cl)c(C(=O)NCC23CC4CC(CC(C4)C2)C3)c1` [[^11C]1]: the “Intact tracer (%)” value in data set [3] (rat brain, 15 min p.i.) was 82 ± 1%; in data set [3] (rat brain, 45 min p.i.), 76 ± 2%; in data set [3] (setting [5]) it was 37 ± 5%; in data set [3] (setting [6]), 25 ± 1%. Also, the logD in data set [4] turned out to be 2.88 ± 0.14.

Take `[11CH3]Oc1ccc(Cl)c(C(=O)NCC23CC4CC(CC(F)(C4)C2)C3)c1` [[^11C]2]: the “Intact tracer (%)” value in data set [3] (rat brain, 15 min p.i.) was found to be 67 ± 5%; in data set [3] (rat brain, 45 min p.i.), 32 ± 4%; in data set [3] (setting [5]), 37 ± 7%; in data set [3] (setting [6]), 15 ± 2%. Also, in data set [4], the logD turned out to be 2.93 ± 0.02.

`[11CH3]Oc1ccc(Cl)c(C(=O)NCC23CC4CC(F)(CC(F)(C4)C2)C3)c1` [[^11C]3]: the “Intact tracer (%)” value in data set [3] (rat brain, 15 min p.i.) came out at 62 ± 2%; in data set [3] (rat brain, 45 min p.i.), 32 ± 2%; in data set [3] (setting [5]) it was 35 ± 1%; in data set [3] (setting [6]), 16 ± 1%. Besides, the logD in data set [4] stood at 2.71 ± 0.01.
